Results as given in patent US9233964B2, “Sulfamide piperazine derivatives as protein tyrosine kinase inhibitors and pharmaceutical use therof” (LEO PHARMA A/S, priority 2011, dated 2016).

Assays:
Type in all cases: biochemical
[1] = molecular target: T1, JAK3 (Homo sapiens, UniProt P52333); assay: JAK kinase assay (HTRF, phosphorylation of synthetic peptide), JAK3; conditions: catalytic domain, ATP at Km (2 μM); read-out: JAK3 kinase inhibitory activity (EC50)
T1 construct: All four purified enzymes contain only the catalytic domain; His (N); purchased Carna Biosciences, Inc; host or cells: baculovirus expression system
Description: (§1) Human baculovirus-expressed JAK1, 2, 3 and TYK2 were purchased from Carna Biosciences, Inc. All four purified enzymes contain only the catalytic domain. JAK1 (aa 850-1154) and TYK2 (aa 871-1187) are expressed with an N-terminally fused GST-tag, and JAK2 and JAK3 with an N-terminally fused His-tag.
(§2) Inhibition of phosphorylation of a synthetic peptide was measured in an HTRF-based assay using the TK substrate-Biotin from the Cisbio HTRFKinEASE TK kit. First, 2 μl of TK solution (TK substrate-biotin in kinase buffer [1× enzymatic buffer from HTRFKinEASE TK kit, 1 mM DTT]) is added to a plate containing 1 μl prediluted compound (final assay concentration DMSO: 0.75%). Then, 5 μl kinase-ATP mix (prepared in kinase buffer) is added to the wells and the plates are incubated at RT for 20-30 min. For all four kinases a concentration of ATP that corresponded to the Km for ATP was used. The final concentrations of buffers, substrate, kinase and ATP were: JAK1: 50 mM Hepes buffer pH 7.0, 0.01% BSA, 10 mM MgCl2, 1 mM DTT, 7 μM ATP, 50 nM SEB, 1 μM TK Substrate-Biotin and 5 ng JAK1; JAK2: 50 mM Hepes buffer pH 7.0, 0.01% BSA, 5 mM MgCl2, 1 mM DTT, 4 μM ATP, 1 μM TK Substrate-Biotin and 0.1 ng JAK2; JAK3: 50 mM Hepes buffer pH 7.0, 0.01% BSA, 5 mM MgCl2, 1 mM DTT, 2 μM ATP, 1 μM TK Substrate-Biotin and 0.3 ng JAK3; TYK2: 50 mM Hepes buffer pH 7.0, 0.01% BSA, 5 mM MgCl2, 1 mM DTT, 13 μM ATP, 50 nM SEB, 1 μM TK Substrate-Biotin and 0.8 ng TYK2. Thereafter, the kinase reaction is stopped by adding 4 μl detection mix (final concentrations: 50 mM Hepes buffer pH 7.0, 0.01% BSA, 0.8 M KF, 20 mM EDTA, 42 nM Streptavidin-XL665 and 1:400 STK Ab Cryptate) and the plates are incubated overnight in the dark. The HTRF signal is read using an Envision plate reader.

[2] = molecular target: T2, JAK1 (Homo sapiens, UniProt P23458); assay: JAK kinase assay (HTRF, phosphorylation of synthetic peptide), JAK1; conditions: catalytic domain, ATP at Km (7 μM); read-out: JAK1 kinase inhibitory activity (EC50)
T2 construct: JAK1 (aa 850-1154) and TYK2 (aa 871-1187) are expressed with an N-terminally fused GST-tag; GST (N); purchased Carna Biosciences, Inc; host or cells: baculovirus expression system
Description: as §1, §2

[3] = molecular target: T3, JAK2 (Homo sapiens, UniProt O60674); assay: JAK kinase assay (HTRF, phosphorylation of synthetic peptide), JAK2; conditions: catalytic domain, ATP at Km (4 μM); read-out: JAK2 kinase inhibitory activity (EC50)
T3 construct: All four purified enzymes contain only the catalytic domain; His (N); purchased Carna Biosciences, Inc; host or cells: baculovirus expression system
Description: as §1, §2

[4] = molecular target: T4, TYK2 (Homo sapiens, UniProt P29597); assay: JAK kinase assay (HTRF, phosphorylation of synthetic peptide), TYK2; conditions: catalytic domain, ATP at Km (13 μM); read-out: TYK2 kinase inhibitory activity (EC50)
T4 construct: JAK1 (aa 850-1154) and TYK2 (aa 871-1187) are expressed with an N-terminally fused GST-tag; GST (N); purchased Carna Biosciences, Inc; host or cells: baculovirus expression system
T4 sequence (P29597 871-1187): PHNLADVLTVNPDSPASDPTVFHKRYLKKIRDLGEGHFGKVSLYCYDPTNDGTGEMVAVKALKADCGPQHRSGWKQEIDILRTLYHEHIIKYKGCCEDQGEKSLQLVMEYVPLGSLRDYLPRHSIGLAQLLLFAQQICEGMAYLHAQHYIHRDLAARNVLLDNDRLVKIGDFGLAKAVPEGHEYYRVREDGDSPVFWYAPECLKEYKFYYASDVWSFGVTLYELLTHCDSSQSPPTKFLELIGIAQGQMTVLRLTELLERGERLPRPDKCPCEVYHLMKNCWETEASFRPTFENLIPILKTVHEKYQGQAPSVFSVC
Description: as §1, §2

T1 sequence (P52333 822-1111 limits assumed): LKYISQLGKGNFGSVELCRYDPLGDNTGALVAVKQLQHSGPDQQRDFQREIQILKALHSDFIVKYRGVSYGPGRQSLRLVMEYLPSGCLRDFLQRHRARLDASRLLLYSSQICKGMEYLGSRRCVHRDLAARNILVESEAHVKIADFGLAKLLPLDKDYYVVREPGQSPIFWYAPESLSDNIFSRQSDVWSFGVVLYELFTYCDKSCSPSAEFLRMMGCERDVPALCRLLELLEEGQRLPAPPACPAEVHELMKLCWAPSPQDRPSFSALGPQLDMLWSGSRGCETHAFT
T3 sequence (O60674 849-1124 limits assumed): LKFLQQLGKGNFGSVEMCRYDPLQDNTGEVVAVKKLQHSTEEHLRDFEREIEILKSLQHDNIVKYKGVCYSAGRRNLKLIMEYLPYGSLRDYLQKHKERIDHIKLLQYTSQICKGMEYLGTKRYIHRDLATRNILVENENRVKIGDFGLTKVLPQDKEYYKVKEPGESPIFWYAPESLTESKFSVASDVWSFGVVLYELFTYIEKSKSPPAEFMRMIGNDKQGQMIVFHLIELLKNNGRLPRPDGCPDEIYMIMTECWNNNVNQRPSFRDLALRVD
T2 sequence (P23458 850-1154): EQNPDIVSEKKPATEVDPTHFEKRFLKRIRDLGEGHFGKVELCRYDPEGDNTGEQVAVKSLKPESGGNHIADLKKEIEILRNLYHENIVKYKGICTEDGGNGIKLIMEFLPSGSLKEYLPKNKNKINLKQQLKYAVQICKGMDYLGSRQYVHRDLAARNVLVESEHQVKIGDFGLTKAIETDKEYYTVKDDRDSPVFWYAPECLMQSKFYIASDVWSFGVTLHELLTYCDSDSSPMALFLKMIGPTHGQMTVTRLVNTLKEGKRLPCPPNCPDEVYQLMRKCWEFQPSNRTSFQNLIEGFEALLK

SMILES	EC50 [1]	EC50 [2]	EC50 [3]	EC50 [4]
CN(CC1CCN(C(=O)CCC#N)C1)S(=O)(=O)N1CCN(c2ncnc3[nH]ccc23)CC12CC2 (stereo not drawn) [Example 126, N-[[1-(3-cyanopropanoyl)pyrrolidin-3-yl]methyl]-N-methyl-5-(7H-pyrrolo[2,3-d]pyrimidin-4-yl)-5,8-diazaspiro[2.5]octane-8-sulfonamide]	0.1 to 0.5 µM	< 0.1 µM	< 0.1 µM	> 0.5 µM
CN(OCc1ccccc1)S(=O)(=O)N1CCN(c2ncnc3[nH]ccc23)CC12CC2 [Example 174, N-benzyloxy-N-methyl-5-(7H-pyrrolo[2,3-d]pyrimidin-4-yl)-5,8-diazaspiro[2.5]octane-8-sulfonamide]	0.1 to 0.5 µM	< 0.1 µM	< 0.1 µM	0.1 to 0.5 µM
CN(C(=O)CC1CCCC1)S(=O)(=O)N1CCN(c2ncnc3[nH]ccc23)CC12CC2 [Example 133, 2-cyclopentyl-N-methyl-N-[[5-(7H-pyrrolo[2,3-d]pyrimidin-4-yl)-5,8-diazaspiro[2.5]octan-8-yl]sulfonyl]acetamide]	0.1 to 0.5 µM	< 0.1 µM	< 0.1 µM	0.1 to 0.5 µM
CN(C(=O)CCC1CCS(=O)(=O)C1)S(=O)(=O)N1CCN(c2ncnc3[nH]ccc23)CC12CC2 (stereo not drawn) [Example 137, 3-(1,1-dioxothiolan-3-yl)-N-methyl-N-[[5-(7H-pyrrolo[2,3-d]pyrimidin-4-yl)-5,8-diazaspiro[2.5]octan-8-yl]sulfonyl]propanamide]	0.1 to 0.5 µM	< 0.1 µM	< 0.1 µM	> 0.5 µM
COCCS(=O)(=O)N1CCC(CN(C)S(=O)(=O)N2CCN(c3ncnc4[nH]ccc34)CC23CC3)C1 (stereo not drawn) [Example 120, N-[[1-(2-methoxyethylsulfonyl)pyrrolidin-3-yl]methyl]-N-methyl-5-(7H-pyrrolo[2,3-d]pyrimidin-4-yl)-5,8-diazaspiro[2.5]octane-8-sulfonamide]	< 0.1 µM	< 0.1 µM	< 0.1 µM	0.1 to 0.5 µM
CN(C[C@H]1CCCN1C(=O)CCO)S(=O)(=O)N1CCN(c2ncnc3[nH]ccc23)CC12CC2 [Example 190, N-[[(2R)-1-(3-hydroxypropanoyl)pyrrolidin-2-yl]methyl]-N-methyl-5-(7H-pyrrolo[2,3-d]pyrimidin-4-yl)-5,8-diazaspiro[2.5]octane-8-sulfonamide]	0.1 to 0.5 µM	< 0.1 µM	< 0.1 µM	0.1 to 0.5 µM
O=S(=O)(NC[C@@H]1CCCN1Cc1ccccc1)N1CCN(c2ncnc3[nH]ccc23)CC12CC2 [Example 175, N-[[(2S)-1-benzylpyrrolidin-2-yl]methyl]-5-(7H-pyrrolo[2,3-d]pyrimidin-4-yl)-5,8-diazaspiro[2.5]octane-8-sulfonamide]	0.1 to 0.5 µM	< 0.1 µM	< 0.1 µM	0.1 to 0.5 µM
O=S(=O)(NC1COC1)N1CCN(c2ncnc3[nH]ccc23)CC12CC2 [Int 41]	< 0.1 µM	< 0.1 µM	< 0.1 µM	0.1 to 0.5 µM
CN(C)CCCN(C1CCC1)S(=O)(=O)N1CCN(c2ncnc3[nH]ccc23)CC12CC2 [Example 105, N-cyclobutyl-N-[3-(dimethylamino)propyl]-5-(7H-pyrrolo[2,3-d]pyrimidin-4-yl)-5,8-diazaspiro[2.5]octane-8-sulfonamide]	> 0.5 µM	0.1 to 0.5 µM	< 0.1 µM	> 0.5 µM
CN(CC1CCC(F)(F)CC1)S(=O)(=O)N1CCN(c2ncnc3[nH]ccc23)CC12CC2 [Example 62, N-[(4,4-difluorocyclohexyl)methyl]-N-methyl-5-(7H-pyrrolo[2,3-d]pyrimidin-4-yl)-5,8-diazaspiro[2.5]octane-8-sulfonamide]	< 0.1 µM	< 0.1 µM	< 0.1 µM	< 0.1 µM
CN(CC1CCCNC1)S(=O)(=O)N1CCN(c2ncnc3[nH]ccc23)CC12CC2 (stereo not drawn) [Int 27]	> 0.5 µM	0.1 to 0.5 µM	0.1 to 0.5 µM	> 0.5 µM
N#CCCNS(=O)(=O)N1CCN(c2ncnc3[nH]ccc23)CC12CC2 [Int 40]	< 0.1 µM	< 0.1 µM	< 0.1 µM	> 0.5 µM
